Patent US10801879B2, “Magnesium zinc oxide nanostructure modified biosensor and monitoring of response of cell population to an agent using the same” (Rutgers, The State University of New Jersey, priority 2015, dated 2020)
In brackets after ≈: the same amount, converted by molar mass.

Legend:
[1] = test system: VP16-sensitive ALL cell line (CEM); assay: MZOnano-QCM 48-hour monitoring of drug sensitive ALL (CEM) cells; assay type: cell-based
Procedure: (§1) The third example uses the drug VP16 (also known as etoposide, an anticancer agent), VP16-sensitive ALL cell line (CEM) and its VP16-resistant derivative cell line (CEM-V1) as a model for monitoring the effect of anticancer agents on the growth of cancer cells using the MZOnano-QCM sensor device, where the Mg composition x in MZO is 0.03.
For all of the experiments in this example, an initial seeding density of 4×10^5 cells in 2 mL of medium is used, the leukemia cell growth using the MZOnano-QCM is monitored dynamically for 48 hours. The drug (VP16) was introduced into the cell culture after 4 hours after the initial seeding. With reference to FIG. 7, the time-dependent frequency shift of the sensor for the entire 48-hour monitoring period of the drug sensitive CEM cells is shown. In the no-drug case, the frequency shift increases exponentially from 0-40 hours (indicating exponential cell accumulation on the sensing area) and then the frequency shift rate decreases showing saturation of the cell growth. In the case where the drug is introduced into the cell culture in the device, it is observed that the cells continue to grow after the drug has been introduced (4 hours after initial seeding), however, it is seen that the drug has taken effect 16 hours after the drug has been introduced.

[2] = test system: VP16-resistant derivative cell line (CEM-V1); assay: MZOnano-QCM 48-hour monitoring of drug resistant ALL (CEM-V1) cells; assay type: cell-based
Source text: as §1
The same experiment can be repeated on drug resistant CEM leukemia cells (CEM-V1) using both the MZOnano-QCM sensor and the viability analyzer, and the monitoring can be conducted for 48 hours. […] The drug was added into the cell culture at 4 hours after the initial seeding of 4×10^5 cells. […] The various configurations used in the example in FIG. 11 are the same as those described with respect to FIG. 8, and the various configurations used in the example in FIG. 12 are the same as those described with respect to FIG. 9.

S. cerevisiae (yeast) [3] = assay: MZOnano-QCM monitoring of antifungal drug effects on yeast; assay type: cell-based; conditions: drug introduced at 330 min after initial growth seeding
Source text: (§2) The result using various embodiments in this patent document accurately detects both drug effects in a rapid manner.
(§3) This is due to the fact that the spectroscopic method relies on light absorption by the suspended cells, and dead yeast cells remain in suspension, thus contributing to the absorption.

S. cerevisiae (yeast) [4] = assay: Spectrophotometry (OD600) monitoring of antifungal drug effects on yeast; assay type: cell-based; conditions: patent calls the identification incorrect
Source text: as §2, §3

S. epidermidis = assay: Standard broth dilution assay (MIC), S. epidermidis; assay type: cell-based; conditions: Staphylococcus epidermidis
P. aeruginosa = conditions: FIG. 15(b)
Procedure: The sensor was placed inside an incubator at 37° C. while automatically measuring the acoustic spectrum every 15 minutes for 3 hours.

[5] = test system: antibiotic-sensitive E. coli; assay: MZOnano-QCM detection of antibiotic effects on sensitive E. coli; assay type: cell-based; conditions: ampicillin-sensitive cells, 256 μg/mL
Procedure: (§4) The first example illustrates the application of a magnesium zinc oxide (MZO) nanostructure-modified quartz crystal microbalance (MZOnano-QCM) biosensor disclosed in this document with reference to FIGS. 1A and 1B to dynamically monitor antibiotic effects on sensitive and resistant E. coli cells. MZO-nanostructures were grown on a standard QCM top-electrode using metal-organic chemical-vapor deposition. ZnO and MZO nanostructured-films are chosen for their multi-functionality and biocompatibility. Their surface-wettability and morphology can be controlled, offering high-sensitivity to various biological/biochemical species. MZO can withstand a larger pH range than ZnO does. Combining advantages of MZO nanostructures with the dynamic impedance spectrum capability of QCM makes MZOnano-QCM a highly-sensitive dynamic biosensor well-suited for AMR detection. The growth of E. coli on ZnO and MZO nanostructures was determined by 90-minute incubation.
(§5) FIGS. 4A-4D show the detection of antibiotic effects on E. coli using regular QCM, ZnOnano-QCM and MZOnano-QCM. The regular QCM failed detection due to low sensitivity while both ZnOnano- and MZOnano-QCM enable accurate detection of bacterial count during active growth though frequency shifts (Δf). The MZOnano-QCM offered four-fold higher sensitivity than ZnOnano-QCM. […]

resistant E. coli = assay: MZOnano-QCM detection of antimicrobial resistance of resistant E. coli; assay type: cell-based; conditions: ampicillin-resistant cells, 256 μg/mL
Procedure: as §4, §5

## COc1cc([C@@H]2c3cc4c(cc3[C@@H](O[C@@H]3O[C@@H]5CO[C@@H](C)O[C@H]5[C@H](O)[C@H]3O)[C@H]3COC(=O)[C@H]23)OCO4)cc(OC)c1O [VP16, etoposide]
[1]; 20 hours to 48 hours
  cell response (frequency shift) after drug took effect: cells start to die (or stop to proliferate)
[1]; drug introduced 4 hours after initial seeding of 4×10^5 cells
  time after drug introduction at which drug has taken effect: 16 h
[2]; 48 hours monitoring
  cell response (frequency shift trend) in the presence of the drug: continuous cell growth
[2]; drug added 4 hours after initial seeding of 4×10^5 cells
  time after addition of drug at which frequency shift started to decrease compared to no-drug control: ~15 h

## C[C@@H]1[C@H](O)[C@@H](C)/C=C/C=C/C=C/C=C/C=C/C=C/C=C/[C@H](O[C@@H]2O[C@H](C)[C@@H](O)[C@H](N)[C@@H]2O)C[C@@H]2O[C@](O)(C[C@@H](O)C[C@@H](O)[C@H](O)CC[C@@H](O)C[C@@H](O)CC(=O)O[C@H]1C)C[C@H](O)[C@H]2C(=O)O [amphotericin]
S. cerevisiae (yeast) [3]
  drug effect on yeast detected by sensor: cell-killing effects
S. cerevisiae (yeast) [4]
  drug effect on yeast as identified by OD600 method: fungi-static

## Clc1ccc(COC(Cn2ccnc2)c2ccc(Cl)cc2Cl)c(Cl)c1 (stereo not drawn) [miconazole]
S. cerevisiae (yeast) [3]
  drug effect on yeast detected by sensor: growth inhibition effects

## O=C(O)c1cn(C2CC2)c2cc(N3CCNCC3)c(F)cc2c1=O [ciprofloxacin]
S. epidermidis
  MIC: 0.05 µg/mL (≈ 0.151 µM)
P. aeruginosa
  motional resistance in presence or absence of drug: dramatically different

## CC1(C)S[C@@H]2[C@H](NC(=O)[C@H](N)c3ccccc3)C(=O)N2[C@H]1C(=O)O [ampicillin]
[5]
  time within which Δf declined upon treatment: ≤ 10 min
  time within which Δf stopped increasing upon treatment: ≤ 5 min
Resistant E. coli
  Δf response upon treatment: continued increasing
